Source: patent US7713994B2 (Wyeth LLC, priority 2005, dated 2010)

How the values were obtained:
LoVo = assay: Cytotoxicity assay (SRB), LoVo; assay type: cell-based; conditions: Homo sapiens, LoVo, 72 h, LoVo cells, 3 days, SRB; read-out: In Vitro Cellular Activity IC50 LOVO
Procedure, shortened: (§1)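 Cells seeded overnight at 37 °C, 7% CO2 (BT474 12000, HCT-116 4000, LoVo and MCF-7 6000 cells/well) in RPMI 1640 with 5% FBS, then exposed to compound dilutions for 3 days (BT474 6 days). Survival versus untreated controls by TCA fixation and SRB staining, absorbance 540 nm.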

BT474 = assay: Cytotoxicity assay (SRB), BT474; assay type: cell-based; conditions: Homo sapiens, BT-474, 144 h, BT474 cells, 6 days, SRB; read-out: In Vitro Cellular Activity IC50 BT474
Procedure, shortened: as §1

cyclin E/CDK2 enzyme = target: T1, cyclin E/CDK2 enzyme (Homo sapiens, UniProt P24941); assay: CDK2 ELISA kinase assay (phospho-Rb ser 795 detection); assay type: biochemical; conditions: In Vitro Enzyme Assay, cyclin E/CDK2, read-out: CDK2 IC50
T1 construct: made in house; host or cells: Sf9 insect cells, recombinant baculovirus
Procedure, shortened: (§2)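 GST-Rb C-terminal fragment coated on wells; kinase reaction: 200 μM ATP, 0.5 mg/ml BSA, HEPES pH 7.5, 10 mM MgCl2, baculovirus/Sf9 cyclin-CDK, 30° C, 1 h. Readout anti-phospho-Rb Ser795, HRP, TMB, A450. Test compound 10 ug/ml final.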

HCT-116 = assay: Cytotoxicity assay (SRB), HCT-116; assay type: cell-based; conditions: Homo sapiens, HCT-116, 72 h, HCT116 cells, 3 days, SRB; read-out: In Vitro Cellular Activity IC50 HCT116
Procedure, shortened: as §1

cyclin D1/cdk 4 enzyme = target: T2, cyclin D1/cdk 4 enzyme (Homo sapiens, UniProt P11802); assay: CDK4 ELISA kinase assay (phospho-Rb ser 795 detection); assay type: biochemical; conditions: In Vitro Enzyme Assay, cyclin D1/cdk 4, read-out: CDK4 IC50
T2 construct: made in house; host or cells: Sf9 insect cells, recombinant baculovirus
Procedure, shortened: as §2

MCF-7 = assay: Cytotoxicity assay (SRB), MCF-7; assay type: cell-based; conditions: Homo sapiens, MCF7, 72 h, MCF-7 cells, 3 days, SRB; read-out: In Vitro Cellular Activity IC50 MCF-7
Procedure, shortened: as §1

cyclin B/CDK1 enzyme = target: T3, cyclin B/CDK1 enzyme (Homo sapiens, UniProt P06493); assay: CDK1 ELISA kinase assay (phospho-Rb ser 795 detection); assay type: biochemical; conditions: In Vitro Enzyme Assay, cyclin B/CDK1, read-out: CDK1 IC50
T3 construct: purchased New England BioLabs; host or cells: Sf9 insect cells, recombinant baculovirus
Procedure, shortened: as §2

T3 sequence (P06493 whole entry): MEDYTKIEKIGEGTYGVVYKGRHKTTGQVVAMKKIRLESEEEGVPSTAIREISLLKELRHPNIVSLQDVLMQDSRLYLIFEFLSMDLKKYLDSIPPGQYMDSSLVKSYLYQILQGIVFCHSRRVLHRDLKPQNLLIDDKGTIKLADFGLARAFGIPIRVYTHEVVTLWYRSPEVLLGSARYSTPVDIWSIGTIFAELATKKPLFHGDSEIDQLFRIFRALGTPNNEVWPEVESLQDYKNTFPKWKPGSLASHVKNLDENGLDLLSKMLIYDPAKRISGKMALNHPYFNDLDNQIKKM
T3 sequence (P14635 whole entry partner): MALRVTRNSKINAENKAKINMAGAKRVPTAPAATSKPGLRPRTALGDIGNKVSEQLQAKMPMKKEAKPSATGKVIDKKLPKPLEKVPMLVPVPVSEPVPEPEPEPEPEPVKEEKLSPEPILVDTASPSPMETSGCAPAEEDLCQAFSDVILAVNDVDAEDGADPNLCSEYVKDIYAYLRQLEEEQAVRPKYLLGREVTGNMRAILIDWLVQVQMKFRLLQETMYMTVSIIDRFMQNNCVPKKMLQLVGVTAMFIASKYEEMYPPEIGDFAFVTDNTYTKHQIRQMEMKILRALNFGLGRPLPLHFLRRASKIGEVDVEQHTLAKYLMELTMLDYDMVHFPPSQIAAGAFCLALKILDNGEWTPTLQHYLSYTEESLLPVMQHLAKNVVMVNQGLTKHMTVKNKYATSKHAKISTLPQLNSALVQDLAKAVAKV
T2 sequence (P11802 whole entry, species assumed): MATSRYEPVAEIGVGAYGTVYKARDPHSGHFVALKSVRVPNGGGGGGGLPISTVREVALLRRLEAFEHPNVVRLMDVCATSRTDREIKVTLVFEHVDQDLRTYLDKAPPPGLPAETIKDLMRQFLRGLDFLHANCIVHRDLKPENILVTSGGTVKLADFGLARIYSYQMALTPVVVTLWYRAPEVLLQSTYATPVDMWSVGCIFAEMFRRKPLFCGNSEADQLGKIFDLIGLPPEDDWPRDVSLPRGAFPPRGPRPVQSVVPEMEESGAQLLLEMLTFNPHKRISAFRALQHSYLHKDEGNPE
T2 sequence (P24385 whole entry partner, species assumed): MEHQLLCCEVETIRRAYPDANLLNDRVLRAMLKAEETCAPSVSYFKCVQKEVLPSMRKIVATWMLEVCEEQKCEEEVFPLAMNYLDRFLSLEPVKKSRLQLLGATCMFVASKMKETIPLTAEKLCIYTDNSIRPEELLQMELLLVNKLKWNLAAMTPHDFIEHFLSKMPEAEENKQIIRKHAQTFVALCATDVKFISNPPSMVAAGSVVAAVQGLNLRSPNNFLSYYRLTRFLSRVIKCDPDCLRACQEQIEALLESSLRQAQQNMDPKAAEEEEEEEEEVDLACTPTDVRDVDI

| SMILES | IC50 (LoVo) | IC50 (BT474) | IC50 (cyclin E/CDK2 enzyme) | IC50 (HCT-116) | IC50 (cyclin D1/cdk 4 enzyme) | IC50 (MCF-7) | IC50 (cyclin B/CDK1 enzyme) |
| --- | --- | --- | --- | --- | --- | --- | --- |
| O=C1NC(=O)c2ccc(N3CCCC3)cc2/C1=C/NCc1ccc(O)c(O)c1 [Example 609, 4-[(3,4-Dihydroxy-benzylamino)-methylene]-6-pyrrolidin-1-yl-4H-isoquinoline-1,3-dione] | 19.1 µM | 18.3 µM | 12.1 µM | 30.6 µM | 0.02 µM | 13.6 µM | 11.8 µM |
| O=C1NC(=O)c2ccc(N3Cc4ccccc4C3)cc2C1=CNCc1ccc(O)c(O)c1 [Example 610, 6-(1,3-Dihydro-isoindol-2-yl)-4-[(3,4-dihydroxy-benzylamino)-methylene]-4H-isoquinoline-1,3-dione] | 11.1 µM | 27 µM | 2.5 µM | 9.9 µM | 0.38 µM | 12.2 µM | 3.5 µM |
| O=C1NC(=O)c2ccc(N(CCC(F)(F)F)CCC(F)(F)F)cc2C1=CNCc1ccc(O)c(O)c1 [Example 611, 6-[Bis-(3,3,3-trifluoro-propyl)-amino]-4-[(3,4-dihydroxy-benzylamino)-methylene]-4H-isoquinoline-1,3-dione] | 16.1 µM | 23.6 µM | 18.1 µM | 14.1 µM | 12.9 µM | 13.2 µM | 18.1 µM |
| CC1CCCN1Cc1ccc(NC=C2C(=O)NC(=O)c3ccccc32)cc1 (stereo not drawn) [Example 617, 4-{[4-(2-Methyl-pyrrolidin-1-ylmethyl)-phenylamino]-methylene}-4H-isoquinoline-1,3-dione] | 14 µM | 18.5 µM | 21.3 µM | 7.6 µM | 16.5 µM | 11.2 µM | > 50 µM |
| O=C1NC(=O)c2ccc(-c3ccccc3)cc2C1=CNCc1ccc(O)c(O)c1 [Example 620, 4-[(3,4-Dihydroxy-benzylamino)-methylene]-6-phenyl-4H-isoquinoline-1,3-dione] | 11.5 µM | 15.5 µM | 5.8 µM | 11.7 µM | 0.05 µM | 11 µM | 32.5 µM |
| O=C1NC(=O)c2ccc(-c3ccco3)cc2C1=CNCc1ccc(O)c(O)c1 [Example 621, 4-[(3,4-Dihydroxy-benzylamino)-methylene]-6-furan-2-yl-4H-isoquinoline-1,3-dione] | 8.7 µM | 3.5 µM | 4.1 µM | 9.7 µM | 0.01 µM | 6.8 µM | 8.1 µM |
| N#CCc1ccc(NC=C2C(=O)NC(=O)c3ccc(-c4ccc[nH]4)cc32)cc1 [Example 630, (4-{[1,3-Dioxo-6-(1H-pyrrol-2-yl)-2,3-dihydro-1H-isoquinolin-4-ylidenemethyl]-amino}-phenyl)-acetonitrile] | 45.8 µM | 45.3 µM | 17.3 µM | 26 µM | 0.2 µM | 20 µM | 31 µM |
| NS(=O)(=O)c1ccc(CNC=C2C(=O)NC(=O)c3ccc(-c4cc5ccccc5s4)cc32)cc1 [Example 635, 4-{[(6-Benzo[b]thiophen-2-yl-1,3-dioxo-2,3-dihydro-1H-isoquinolin-4-ylidenemethyl)-amino]-methyl}-benzenesulfonamide] | > 50 µM | 37.2 µM | 19.7 µM | 23.6 µM | 1.2 µM | 11.4 µM | 16.9 µM |
| NS(=O)(=O)c1ccc(CNC=C2C(=O)NC(=O)c3ccc(-c4ccc5[nH]ccc5c4)cc32)cc1 [Example 637, 4-({[6-(1H-Indol-5-yl)-1,3-dioxo-2,3-dihydro-1H-isoquinolin-4-ylidenemethyl]-amino}-methyl)-benzenesulfonamide] | > 50 µM | 29.2 µM | 13.5 µM | > 50 µM | 0.81 µM | 22.7 µM | 18 µM |
